Measurements taken from patent US20080004271A1, “Inhibitors of TNFalpha, PDE4 and B-RAF, compositions thereof and methods of use therewith” (priority 2006, published 2008).

Experiments:
[1] = tested on: A375 cells; assay: Alamar Blue Viability Assay; assay type: cell-based; settings: 3 days
Method: A375 cells (ATCC # CRL-1619; Passage 4˜15; doubling time is roughly 18 hours) are used. Culture medium is DMEM (high glucose, with L-glutamine)+10% FBS+Pen/Strep. Cells are passed every three days at 1:20.
200 μl of medium only is added into all wells along the edges of a 96-well flat bottom plate and 180 μl of cell suspension (containing 1,000 cells) per well is added into the plate with a Low Evaporation Lid (Costar Cat # 3595). The cells are cultured overnight. Compounds and controls are diluted according to standard compound dilution protocol described below. From 30 mM stock solution, 10 mM, 3 mM, 1 mM, and 0.3 mM solutions in 100% DMSO are prepared using the following serial dilution protocol:
The 30, 10, 3, 1 and 0.3 mM solutions are diluted 1:50 (DMSO:medium) by adding 4 μl of each to 196 μl of culture medium. This yields 600 μM, 200 μM, 60 μM, 20 μM, and 6 μM secondary stock solutions. 4 μl of DMSO are added to 196 μl medium for the DMSO control as well. 20 μl of compound dilutions, including the DMSO control locations (Row G, Columns 2-10 are DMSO control wells), are added in triplicate to the cells in the 96-well plate using a repeat pipettor (see plate layout below). This yields final concentrations of 60 μM, 20 μM, 6 μM, 2 μM, and 0.6 μM containing 0.2% DMSO in each well. The plate is gently tapped to evenly distribute compound within the well. The plate is incubated at 5% CO2 at 37° C. for 3 days.
20 μl of Alamar Blue (Biosource #DAL-1100) is added to each well. The plate is incubated in 5% CO2 incubator for 4 hours. Fluorescence is measured with excitation wavelength at 530 nm and emission wavelength at 590 nm using a Victor 2 multilabel plate reader (Perkin Elmer). Data is saved with plate format as a Text file and entered into ActivityBase (Cell-based SAR; Prolif-Alamar; MTT 5 plates unfixed fit) to calculate the percent of DMSO values for each compound set of triplicate wells and IC50 curves are plotted.

[2] = target: T1, V600E mutant B-RAF (Homo sapiens, UniProt P15056, V600E); assay: V600E Mutant B-RAF 33P Assay; assay type: biochemical
T1 construct: purchased Upstate
T1 sequence (P15056 whole entry V600E): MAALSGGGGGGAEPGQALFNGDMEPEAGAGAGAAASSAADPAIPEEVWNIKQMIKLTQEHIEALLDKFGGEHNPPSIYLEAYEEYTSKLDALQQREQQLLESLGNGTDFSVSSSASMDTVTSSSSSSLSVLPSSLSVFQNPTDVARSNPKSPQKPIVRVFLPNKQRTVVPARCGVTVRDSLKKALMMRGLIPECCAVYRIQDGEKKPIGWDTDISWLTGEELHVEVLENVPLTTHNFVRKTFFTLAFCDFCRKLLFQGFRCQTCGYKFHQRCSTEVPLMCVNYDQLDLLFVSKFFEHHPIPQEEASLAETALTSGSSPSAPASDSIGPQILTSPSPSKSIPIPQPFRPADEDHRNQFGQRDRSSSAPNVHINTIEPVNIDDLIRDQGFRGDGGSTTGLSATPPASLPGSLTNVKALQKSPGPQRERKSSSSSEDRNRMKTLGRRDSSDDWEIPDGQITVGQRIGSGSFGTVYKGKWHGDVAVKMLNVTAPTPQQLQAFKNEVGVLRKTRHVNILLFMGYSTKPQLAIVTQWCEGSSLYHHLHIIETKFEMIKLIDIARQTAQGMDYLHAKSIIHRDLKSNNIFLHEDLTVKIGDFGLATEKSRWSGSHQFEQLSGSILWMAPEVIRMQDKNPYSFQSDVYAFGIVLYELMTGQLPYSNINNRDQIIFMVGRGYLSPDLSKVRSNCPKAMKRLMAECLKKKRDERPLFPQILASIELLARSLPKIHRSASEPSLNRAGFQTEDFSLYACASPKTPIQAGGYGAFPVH
Method: Substrate (HIS-MEK1 K97M) is prepared by Celgene Corp. as described above.
Test compound is diluted in 100% DMSO (600 μM). […] Substrate mixture is prepared as 7.5 μM HIS-MEK1 K97M in assay buffer. ATP mixture is prepared as 300 μM ATP, 75 mM MgCl2, 0.05 μCi/μl ^33P ATP in assay buffer.
In a 96 well assay plate (Falcon Polylpropylene well U-bottom), the following are added to each well: 2.5 μl of test compound solution (serial dilutions), 20 μl of substrate mixture and 17.5 μl of enzyme mixture. The plate is incubated for at least 15 minutes. 10 μl of ATP mixture is added and the plate is incubated at room temperature for about 60 minutes. 80 μl of 12.5% TCA is added to each well, and the plate is incubated for at least 20 minutes. The contents of the plate is transferred to a glass fiber filter plate (Millipore) using a Packard Harvester (washing 10× with 1×PBS). 50 μl of Scintillation-20 fluid is added to each well. The plate is read using a Packard TopCount.

| SMILES | IC50 ([1]; Homo sapiens, A-375, 72 h) | IC50 [2] | IC50 [1] |
| --- | --- | --- | --- |
| NC(=O)c1sc2nc(NC3CC3)nc(-c3ccc(OCc4ccccc4)nc3)c2c1N [Example 168] | 20 to 30 µM | 0.1 to 10 µM |  |
| NC(=O)c1sc2nc(NC3CC3)nc(-c3ccc(O)nc3)c2c1N [Example 170] | > 60 µM | 30 to 60 µM |  |
| CCc1cncc(-c2nc(NC(C)(C)CO)nc3sc(C(N)=O)c(N)c23)c1 [Example 178] | 10 to 20 µM | 0.1 to 10 µM |  |
| CC(C)(CO)Nc1nc(-c2cncc(OCc3ccccc3)c2)c2c(N)c(C(N)=O)sc2n1 [Example 179] | 10 to 20 µM | 30 to 60 µM |  |
| CC(C)(CO)Nc1nc(-c2cncc(O)c2)c2c(N)c(C(N)=O)sc2n1 [Example 180] | 10 to 20 µM | 0.1 to 10 µM |  |
| NC(=O)c1sc2nc(NC3CC3)nc(-c3ccccc3OCc3ccccc3)c2c1N [Example 182] | 30 to 60 µM | 30 to 60 µM |  |
| COc1cccc(-c2nc(N)nc3sc(C(N)=O)c(N)c23)c1 [Example 184] | 20 to 30 µM | 0.1 to 10 µM |  |
| NC(=O)c1sc2nc(NC3CC3)nc(-c3ccccc3F)c2c1N [Example 186] | 20 to 30 µM | 0.1 to 10 µM |  |
| NC(=O)c1nc(-c2ccc(Cl)c(Cl)c2)c2c(N)c(C(N)=O)sc2n1 [Example 193] |  | 0.1 to 10 µM | 20 to 30 µM |
| CC(C)(C)Nc1nc(-c2ccc(Cl)c(Cl)c2)c2c(N)c(C(N)=O)sc2n1 [Example 209] | 10 to 20 µM | 0.1 to 10 µM |  |
| C[C@@H](CO)Oc1nc(-c2ccc(Cl)c(Cl)c2)c2c(N)c(C(N)=O)sc2n1 [Example 211] | 10 to 20 µM |  |  |
| C[C@H](O)[C@H](C)Oc1nc(-c2ccc(Cl)c(Cl)c2)c2c(N)c(C(N)=O)sc2n1 [Example 213] | > 60 µM | 0.1 to 10 µM |  |
| CC(C)(O)CNc1nc(-c2ccc(Cl)c(Cl)c2)c2c(N)c(C(N)=O)sc2n1 [Example 215] | 10 to 20 µM | 0.1 to 10 µM |  |
| NC(=O)c1sc2nc(NC3CNC3)nc(-c3ccc(Cl)c(Cl)c3)c2c1N [Example 227] | 0.1 to 10 µM | 0.1 to 10 µM |  |
| COc1cc(-c2nc(NC3CC3)nc3sc(C(N)=O)c(N)c23)ccc1C(F)(F)F [Example 233] | 10 to 20 µM | 0.1 to 10 µM |  |
| NC(=O)c1sc2nc(NC3CC3)nc(-c3ccnc(Cl)c3)c2c1N [Example 236] | 30 to 60 µM | 0.1 to 10 µM |  |

| SMILES | IC50 ([1]; Homo sapiens, A-375, 72 h) | IC50 [2] | IC50 [1] |
| --- | --- | --- | --- |
| NC(=O)c1sc2nc(NC3CC3)nc(-c3ccnc(O)c3)c2c1N [Example 237] | > 60 µM | 10 to 20 µM |  |
| NC(=O)c1sc2nc(NC3CC3)nc(-c3cccc([N+](=O)[O-])c3)c2c1N [Example 244] | 30 to 60 µM | 0.1 to 10 µM |  |
| NC(=O)c1sc2nc(NC3CC3)nc(-c3cccc(NC(=O)C(F)(F)F)c3)c2c1N [Example 246] | > 60 µM | 10 to 20 µM |  |
| NC(=O)Cc1nc(-c2ccc(Cl)c(Cl)c2)c2c(N)c(C(N)=O)sc2n1 [Example 254] | > 60 µM | 0.1 to 10 µM |  |
| NC(=O)c1sc2ncnc(-c3cc(O)c4c(c3)OCC4)c2c1N [Example 267] | 10 to 20 µM | 0.1 to 10 µM |  |
| CC(C)[C@@H](CO)Nc1nc(-c2ccc(Cl)c(Cl)c2)c2c(N)c(C(N)=O)sc2n1 [Example 272] | 10 to 20 µM | 0.1 to 10 µM |  |
| COc1cncc(-c2nc(N)nc3sc(C(N)=O)c(N)c23)c1 [Example 277] | 0.1 to 10 µM |  |  |
| NC(=O)c1sc2nc(NC3CC3)nc(Nc3ccccc3)c2c1N [Example 278] | 30 to 60 µM | 10 to 20 µM |  |
| COc1ccnc(-c2nc(NC(C)(C)CO)nc3sc(C(N)=O)c(N)c23)c1 [Example 284] | 10 to 20 µM | 30 to 60 µM |  |
| CCOc1nc(-c2cccc(C(F)F)c2)c2c(N)c(C(N)=O)sc2n1 [Example 285] | 10 to 20 µM | 0.1 to 10 µM |  |
| CC(C)(CO)Nc1nc(-c2cccc(C(F)F)c2)c2c(N)c(C(N)=O)sc2n1 [Example 286] | 10 to 20 µM | 0.1 to 10 µM |  |
| NC(=O)c1sc2ncnc(-c3cccc(Nc4nc5cc(C(F)(F)F)ccc5o4)c3)c2c1N [Example 288] | 10 to 20 µM | 0.1 to 10 µM |  |
| NC(=O)c1sc2ncnc(-c3cccc([N+](=O)[O-])c3)c2c1N [Example 289] | 10 to 20 µM |  |  |
| NC(=O)c1sc2ncnc(-c3cccc(N)c3)c2c1N [Example 290] | 10 to 20 µM |  |  |
| NC(=O)c1sc2ncnc(-c3cccc(NC(=O)Nc4cccnc4)c3)c2c1N [Example 293] | 10 to 20 µM | 0.1 to 10 µM |  |
| NC(=O)c1sc2ncnc(-c3cccc(NC(=O)Nc4ccccn4)c3)c2c1N [Example 294] | 10 to 20 µM |  |  |

The next lines start with the values.

| IC50 ([1]; Homo sapiens, A-375, 72 h) | IC50 [2] | IC50 [1] | SMILES |
| --- | --- | --- | --- |
| 10 to 20 µM |  |  | COc1cncc(-c2nc(N[C@@H](C)CO)nc3sc(C(N)=O)c(N)c23)c1 [Example 177] |
| 30 to 60 µM | 0.1 to 10 µM |  | NC(=O)c1sc2nc(NC3CC3)nc(-c3ccccc3O)c2c1N [Example 183] |
| 20 to 30 µM | 0.1 to 10 µM |  | NC(=O)c1sc2nc(NC3CC3)nc(-c3c(F)cccc3F)c2c1N [Example 187] |
|  | 0.1 to 10 µM | 10 to 20 µM | CC(C)[C@H](CO)Nc1nc(-c2ccc(Cl)c(Cl)c2)c2c(N)c(C(N)=O)sc2n1 [Example 198] |
| 10 to 20 µM | 0.1 to 10 µM |  | CC(C)(CN1CCCC1)Nc1nc(-c2ccc(Cl)c(Cl)c2)c2c(N)c(C(N)=O)sc2n1 [Example 216] |
| 10 to 20 µM | 0.1 to 10 µM |  | CC(O)CCNc1nc(-c2ccc(Cl)c(Cl)c2)c2c(N)c(C(N)=O)sc2n1 (centres unmarked) [Example 221] |
|  | 0.1 to 10 µM |  | CCCCNc1nc(-c2ccc(Cl)c(Cl)c2)c2c(N)c(C(N)=O)sc2n1 [Example 223] |
| 10 to 20 µM | 0.1 to 10 µM |  | NC(=O)c1sc2nc(N[C@@H]3CCOC3)nc(-c3ccc(Cl)c(Cl)c3)c2c1N [Example 229] |
| 20 to 30 µM | 0.1 to 10 µM |  | NC(=O)c1sc2nc(NC3CC3)nc(-c3ccc(C(F)(F)F)cc3)c2c1N [Example 235] |
| > 60 µM |  |  | NC(=O)c1sc2nc(NC3CC3)nc(-c3cccc(N)c3)c2c1N [Example 245] |
| > 60 µM | 0.1 to 10 µM |  | NC(=O)c1sc2nc(CC(=O)O)nc(-c3ccc(Cl)c(Cl)c3)c2c1N [Example 255] |
| 10 to 20 µM |  |  | COc1cc(-c2nc(NC(C)(C)CO)nc3sc(C(N)=O)c(N)c23)cc(Cl)c1Cl [Example 263] |
| 10 to 20 µM | > 60 µM |  | NC(=O)c1sc2ncnc(-c3cc4c(c(OCc5ccccc5)c3)CCO4)c2c1N [Example 266] |
| 30 to 60 µM | 0.1 to 10 µM |  | NC(=O)c1nc(-c2ccc(Cl)c(Cl)c2)c2c(N)c(C(N)=O)sc2n1 [Example 268] |
| 0.1 to 10 µM | 30 to 60 µM |  | NC(=O)c1sc2nc(NC3CC3)nc(Nc3ccc(Cl)c(Cl)c3)c2c1N [Example 279] |
| 10 to 20 µM | 0.1 to 10 µM |  | NC(=O)c1sc2nc(NC3(CO)CCC3)nc(-c3ccc(Cl)c(Cl)c3)c2c1N [Example 281] |
| 10 to 20 µM |  |  | COc1ccc(NC(=O)Nc2cccc(-c3ncnc4sc(C(N)=O)c(N)c34)c2)cc1 [Example 283] |
| 0.1 to 10 µM |  |  | NC(=O)c1sc2ncnc(-c3cccc(Nc4nc5cc(C(F)(F)F)ccc5[nH]4)c3)c2c1N [Example 287] |
